Where two headings read alike, the source gives them in different places.
Assays:
[1] = tested on: Leishmania amazonensis promastigote; test: Activity against promastigote forms (MTT); type: cell-based; settings: for IC50: read-out: IC50 Promastigote
Protocol: Leishmania amazonensis (MHOM/BR/76/MA-76) promastigote forms of were cultured at 26 °C in Schneider’s Insect medium added with 10% fetal bovine sera (FBS), 100 U/mL of penicillin and 100 µg/mL of streptomycin. Parasite cultures with a maximum of seven in vitro passages were used. […] Blanks composed by wells without parasites and wells with parasites plus DMSO 1% only were used as controls. A modified colorimetric method with tetrazolium-dye MTT was used to evaluate parasite viability. A quantity of 10 µL of MTT (5 mg/mL) was added to each well. After five hours, 150 µL of DMSO was added to each well to dissolve the formazan crystals. Absorbance was read on a spectrophotometer at a wavelength of 570 nm. The data was normalized and the results were used to calculate the IC50 (50% inhibition of parasite growth). Miltefosine was used as a reference drug.

Cytotoxicity assay (MTT) = type: cell-based, BALB/c mice; settings: mouse
Protocol: The peritoneal macrophages were obtained from BALB/c mice elicited with 3 mL Brewer thioglycollate medium for 72 h, intraperitoneal. After euthanasia, cells were obtained by peritoneal washing with PBS, centrifuged at 4000 rpm for 5 min, and suspended in RPMI 1640 medium plus 10% FBS, 100 U/mL of penicillin and 100 µg/mL of streptomycin [50]. The cells were immediately used in experiments and maintained at 37 °C and 5% CO2.
Blanks were composed by wells without cells and wells with cells plus 1% of DMSO only. Cell viability was carried out by the modified MTT colorimetric method as described before. Tem microliters of MTT at 5 mg/mL was added to each well and incubated for two hours at 37 °C and 5% CO2. The plate was then centrifuged for five minutes at 1500 rpm, the supernatants were removed and the formazan crystals solubilized with 100 μL of DMSO in a shaker-plate for 10 min. The absorbance was determined in a spectrophotometer at a wavelength of 570 nm.

[2] = tested on: Leishmania amazonensis intracellular amastigotes; test: Activity against intracellular amastigote in infected peritoneal macrophages, and selectivity index; type: cell-based; settings: for amastigotes per infected cell / number of amastigotes per 200 cells / parameters of infection (amastigotes per 200 cells, percentage of infected cells, amastigotes per infected cell): compared with untreated infected cells; for IC50: Leishmania amazonensis, Peritoneal macrophage, in Mus musculus, read-out: IC50 Intracellular Amastigote; for SI (selectivity index): ratio of CC50 versus the IC50 for intracellular amastigotes
Protocol: Activity against the intracellular amastigotes was carried out in 24-well plates with coverslips with peritoneal macrophages (5 × 10^5 cells/well). Cells were infected with L. amazonensis promastigote forms using a ratio of 10:1 parasite/cell. After 6 h after infection the cells were washed three times with PBS to remove non-internalized parasites. […] The infected and treated cells adhered to the coverslips were fixed with Bouin, stained with Giemsa’s azur-eosin-methylene blue and examined by light microscopy. […] The percentage of infected cells was determined by number of infected cells divided by two. […] The selectivity index was calculated from the ratio of CC50 versus the IC50 for intracellular amastigotes.

[3] = tested on: Leishmania amazonensis promastigotes; test: Transmission electron microscopy of treated promastigotes; type: cell-based; settings: 24 h of treatment at IC50
Protocol: The parasites were fixed with 2.5% glutaraldehyde in a 0.1 M sodium-cacodylate buffer, pH 7.2 overnight. Then, parasites were washed three times with 0.1 M sodium-cacodylate buffer, post-fixed in a solution composed by 1% osmium tetroxide, 0.8% potassium ferrocyanide, and 5 mM calcium chloride, dehydrated in graded acetone and embedded in EPON 812.

[4] = tested on: BALB/c peritoneal macrophages; test: Nitrite quantification (Griess) in supernatant of macrophages stimulated with L. amazonensis; type: cell-based, BALB/c mice; settings: compound at 18.7 μM, 48 h
Protocol: BALB/c peritoneal macrophages at 5 × 10^6 cells/mL were stimulated with L. amazonensis promastigotes (10:1 parasites:cell) for one hour, and treated with different concentrations of triazole compounds for 48 h. Nitrite quantification of the supernatant of the cells was performed with Griess reagent. […] The nitrite concentrations were obtained from the standard curve of sodium nitrite (100 to 0.3 μM).

[5] = L. amazonensis promastigotes, 24 h of treatment per table title, MTT
[6] = Leishmania amazonensis, 24 h, L. amazonensis promastigotes, 24 h of treatment per table title, MTT
[7] = BALB/c peritoneal macrophages, 24 h of treatment, MTT, read-out: CC50
[8] = L. amazonensis in BALB/c peritoneal macrophages, 24 h of treatment

| Structure (SMILES) | IC50 [1, 6] [µM] | IC50 [1, 5] [µM] | CC50 at 24 h (Cytotoxicity assay (MTT); [7]) [µM] | number of amastigotes per 200 cells ([2]; 37.5 μM, 24 h) | IC50 [2, 8] [µM] | SI (selectivity index) [2] | ultrastructural alterations in promastigotes [3] | parameters of infection (amastigotes per 200 cells, percentage of infected cells, amastigotes per infected cell) ([2]; 37.5 μM, 24 h) | other results |
| --- | --- | --- | --- | --- | --- | --- | --- | --- | --- |
| O=Cc1ccccc1-n1cc(COc2ccccc2)nn1 [Compound 1] | > 50 | 53.7 ± 8.47 | 221 ± 4.82 | – | – | – | – | – | – |
| O=Cc1ccccc1-n1cc(COc2cccc(OCc3cn(-c4ccccc4C=O)nn3)c2)nn1 [Compound 2] | < 10 | 8.85 ± 3.44 | 248 ± 2.52 | decreased | 37.9 ± 3.35 | 6.55 | increase in lipid corpuscles (white arrows), electron dense vesicles inside small vacuoles in the cytoplasm | – | amastigotes per infected cell ([2]; 37.5 μM, 24 h): decreased |
| C#CCOc1cccc(OCc2cn(-c3ccccc3C=O)nn2)c1 [Compound 4] | ~15 | 15.7 ± 5.42 | 145 ± 4.1 | statistically decreased | 150 ± 6.37 | 0.96 | swelling of the kinetoplast and a change in chromatin distribution | did not significantly alter the other parameters of infection | increase in IC50 value against intracellular amastigote compared to promastigote forms [2]: 9.5 fold |
| Cc1ccc(S(=O)(=O)N/N=C/c2ccccc2-n2cc(COc3ccccc3)nn2)cc1 [Compound 5] | < 10 | 8.81 ± 3.93 | 58 ± 2.65 | – | 32.3 ± 2.26 | 1.79 | lipid corpuscles (white arrows) (Figure 6A), extension of the kinetoplast containing granular material | reduced all the three parameters of infection | – |
| C(=N\Nc1ccccc1)/c1ccccc1-n1cc(COc2ccccc2)nn1 [Compound 6] | ~15 | 14.6 ± 4.39 | 547.9 ± 3.26 | remarkable reduction | 17.8 ± 3.26 | 30.81 | lipid corpuscles (white arrows) (Figure 7A), large vacuoles containing electron-dense material | altered all the three parameters of infection | amastigotes per infected cell ([2]; 18.7 μM, 24 h): still able to reduce; number of amastigotes per 200 cells ([2]; 18.7 μM, 24 h): still able to reduce; nitrite level relative to untreated infected macrophages [4]: 2.3 fold |
| CCCCCCCCCCCCCCCCOP(=O)([O-])OCC[N+](C)(C)C [Miltefosine, miltefosine, reference compound] | – | – | – | – | – | – | – | – | IC50 ([1]; Leishmania amazonensis, 24 h): 8.56 ± 0.695 µM; parameters of infection (amastigotes per 200 cells, percentage of infected cells, amastigotes per infected cell) ([2]; 25 and 12.5 μM, 24 h): reduction of all three parameters of infection; IC50 ([2]; 24 h): 11.6 ± 1.79 µM; CC50 at 24 h (Cytotoxicity assay (MTT); BALB/c): 153 ± 3.85 µM |

More lines, main results first:

| IC50 [1, 6] [µM] | Structure (SMILES) | IC50 [1, 5] [µM] | CC50 at 24 h (Cytotoxicity assay (MTT); [7]) [µM] | number of amastigotes per 200 cells ([2]; 37.5 μM, 24 h) | IC50 [2, 8] [µM] | SI (selectivity index) [2] | ultrastructural alterations in promastigotes [3] | parameters of infection (amastigotes per 200 cells, percentage of infected cells, amastigotes per infected cell) ([2]; 37.5 μM, 24 h) | other results |
| --- | --- | --- | --- | --- | --- | --- | --- | --- | --- |
| > 50 | O=Cc1ccccc1-n1cc(COc2cccc(O)c2)nn1 [Compound 3] | 50.9 ± 4.57 | 308 ± 4.07 | – | – | – | – | – | – |
| > 50 | O=Cc1ccccc1-n1cc(-c2ccccc2)nn1 [Compound 7] | 63 ± 5.88 | 412 ± 4.92 | – | – | – | – | – | – |
| > 300 | OCc1ccccc1-n1cc(COc2ccccc2)nn1 [Compound 8] | – | > 600 | – | – | – | – | – | IC50 Promastigote [1, 5]: did not exhibit any such activity even at the maximum analyzed concentration |
| > 300 | O=c1ccc2cc(-n3cc(COc4ccccc4)nn3)ccc2o1 [Compound 10] | – | > 600 | – | – | – | – | – | IC50 Promastigote [1, 5]: did not exhibit any such activity even at the maximum analyzed concentration |

Reference: paper PMC7555349, “1,4-Disubstituted-1,2,3-Triazole Compounds Induce Ultrastructural Alterations in Leishmania amazonensis Promastigote: An in Vitro Antileishmanial and in Silico Pharmacokinetic Study” (International Journal of Molecular Sciences, 2020)
